These results are taken from patent US7696246B2 (Ligand Pharmaceuticals Incorporated, priority 1999, dated 2010).

The target in data set [1] is T1, human AR (Homo sapiens, UniProt P10275).
T1 sequence (P10275 1-920): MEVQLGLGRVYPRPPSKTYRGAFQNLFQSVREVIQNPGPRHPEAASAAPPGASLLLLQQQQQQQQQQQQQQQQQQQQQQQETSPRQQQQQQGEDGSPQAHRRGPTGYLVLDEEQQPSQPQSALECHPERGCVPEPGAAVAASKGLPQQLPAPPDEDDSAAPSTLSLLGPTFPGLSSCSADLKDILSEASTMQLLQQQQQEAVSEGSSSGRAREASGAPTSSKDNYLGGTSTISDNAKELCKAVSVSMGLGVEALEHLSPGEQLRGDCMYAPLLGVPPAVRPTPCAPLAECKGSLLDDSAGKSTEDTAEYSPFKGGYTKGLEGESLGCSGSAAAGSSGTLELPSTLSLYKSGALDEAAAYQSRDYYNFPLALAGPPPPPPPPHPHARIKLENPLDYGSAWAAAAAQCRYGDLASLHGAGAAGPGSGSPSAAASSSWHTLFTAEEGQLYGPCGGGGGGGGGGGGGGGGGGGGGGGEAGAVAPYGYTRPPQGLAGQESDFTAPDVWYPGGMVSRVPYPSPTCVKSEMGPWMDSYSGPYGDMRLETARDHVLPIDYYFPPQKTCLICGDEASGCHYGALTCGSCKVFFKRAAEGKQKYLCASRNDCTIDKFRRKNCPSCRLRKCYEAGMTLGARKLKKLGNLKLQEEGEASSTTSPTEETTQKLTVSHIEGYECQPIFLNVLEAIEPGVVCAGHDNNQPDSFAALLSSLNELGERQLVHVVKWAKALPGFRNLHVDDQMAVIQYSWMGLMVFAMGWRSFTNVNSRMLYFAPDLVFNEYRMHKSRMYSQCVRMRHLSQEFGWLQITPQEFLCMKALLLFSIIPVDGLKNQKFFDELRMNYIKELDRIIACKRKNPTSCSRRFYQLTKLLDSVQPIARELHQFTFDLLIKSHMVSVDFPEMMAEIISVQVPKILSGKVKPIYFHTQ
Kind of data set: Co-transfection assay, AR agonist activity (CV-1 cells, MTV-LUC reporter). It counts as cell-based. Particulars: CV-1 cells; agonist potency EC50.

The target in data set [2] is T1, human AR. Briefly: Co-transfection assay, AR antagonist activity (CV-1 cells, in presence of DHT). It counts as cell-based. Particulars: for AR Antagonist CV-1 Cells Efficacy (%): percent maximal inhibition, DHT at its EC50; for IC50: read-out: AR Antagonist CV-1 Cells Potency.
The target in data set [3] is T1, human AR. Kind of data set: AR whole cell competitive binding assay (COS-1 cells, 3H-DHT). Particulars: 1 nM 3H-DHT, Cheng-Prusoff.
Protocol: AR Binding: For the whole cell binding assay, COS-1 cells in 96-well microtiter plates containing DMEM-10% FBS were transfected as described above with the following plasmid DNA: pRShAR (2 ng/well), pRS-β-Gal (50 ng/well) and pGEM (48 ngcwell). Six hours after transfection, media was removed, the cells were washed with PBS and fresh media was added. The next day, the media was changed to DMEM-serum free to remove any endogenous ligand that might be complexed with the receptor in the cells.
Three replicates were used for each sample. […] The remaining media was removed, the cells were washed three times with PBS to remove unbound ligand, and cells were lysed with a Triton X-100-based buffer.
For the saturation analyses, the difference between the total binding and the nonspecific binding, normalized by the β-Gal rate, was defined as specific binding. […] The Ki values were determined by application of the Cheng-Prusoff equation to the IC50 values, where:
(§1) After correcting for non-specific binding, IC50 values were determined. […] The IC50 value was determined graphically from a log-logit plot of the data. The Ki values were determined by application of the Cheng-Prusoff equivuation to the IC50 values, the labeled ligand concentration and the Kd of the labeled ligand.
Data set [4] deals with T2, PR (Homo sapiens, UniProt P06401).
T2 sequence (P06401 1-933): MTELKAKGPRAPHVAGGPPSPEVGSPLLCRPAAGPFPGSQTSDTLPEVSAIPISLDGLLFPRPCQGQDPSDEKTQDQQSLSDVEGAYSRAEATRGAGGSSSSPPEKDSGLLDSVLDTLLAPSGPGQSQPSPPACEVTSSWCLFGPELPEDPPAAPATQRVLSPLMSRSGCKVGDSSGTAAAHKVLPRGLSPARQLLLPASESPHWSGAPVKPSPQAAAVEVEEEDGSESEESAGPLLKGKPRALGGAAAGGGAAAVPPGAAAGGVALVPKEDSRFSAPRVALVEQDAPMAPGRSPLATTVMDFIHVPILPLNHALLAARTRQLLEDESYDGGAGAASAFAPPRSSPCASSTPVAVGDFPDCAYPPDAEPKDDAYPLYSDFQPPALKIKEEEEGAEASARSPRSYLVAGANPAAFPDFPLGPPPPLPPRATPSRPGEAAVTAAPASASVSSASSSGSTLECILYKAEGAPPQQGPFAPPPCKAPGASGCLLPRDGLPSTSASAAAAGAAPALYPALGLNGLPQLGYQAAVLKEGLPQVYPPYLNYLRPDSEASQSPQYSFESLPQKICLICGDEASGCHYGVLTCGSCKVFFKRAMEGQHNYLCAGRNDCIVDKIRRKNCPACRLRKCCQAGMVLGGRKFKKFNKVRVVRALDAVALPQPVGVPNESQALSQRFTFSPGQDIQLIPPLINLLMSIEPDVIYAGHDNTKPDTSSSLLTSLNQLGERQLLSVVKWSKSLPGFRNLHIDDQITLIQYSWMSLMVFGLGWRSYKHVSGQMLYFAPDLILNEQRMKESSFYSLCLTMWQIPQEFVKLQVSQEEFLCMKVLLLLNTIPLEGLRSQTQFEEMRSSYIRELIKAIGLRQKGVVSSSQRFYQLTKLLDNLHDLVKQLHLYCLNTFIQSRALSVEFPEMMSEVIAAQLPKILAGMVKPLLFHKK
Briefly: PR competitive binding assay. Particulars: Cheng-Prusoff.
Protocol: as §1

The target of data set [5] is T2, PR. Briefly: Co-transfection assay, PR agonist activity (CV-1 cells). Set-up: expressed in transfected cells; host or cells: CV-1 cells. Particulars: for EC50: agonist potency EC50; for PR Agonist CV-1 Cells Efficacy (%): percent maximal response relative to reference agonist progesterone. It counts as cell-based.
The target in data set [6] is T2, PR. Kind of data set: Co-transfection assay, PR antagonist activity (CV-1 cells, in presence of progesterone). Set-up: expressed in transfected cells; host or cells: CV-1 cells. Particulars: for PR Antagonist CV-1 Cells Efficacy (%): percent maximal inhibition, progesterone at its EC50. It counts as cell-based.

Molecules are shown by their SMILES. Read-outs that look alike come from different tables or passages of the source. Bounds are passed on as bounds.

What is called EC50 is the concentration that produces a half-maximal response. Low readings indicate higher potency in that assay, high ones lower potency in that assay. The term Ki denotes the equilibrium dissociation constant of an inhibitor or competing ligand from its target. Compound `O=c1cc(C(F)(F)F)c2cc(-c3cccc(F)c3F)ccc2[nH]1` [Compound 725, 6-(2,3-Difluoro)phenyl-4-trifluoromethyl-2(1H)-quinolinone] came in with an EC50 on human AR [1] of more than 10 µM. In addition, at human AR [2], the “AR Antagonist CV-1 Cells Efficacy (%)” value stood at 87% and the IC50 is 0.079 µM. The Ki at human AR [3] is more than 1 µM. For the same compound, the affinity on PR [4], expressed as Ki, was 0.4 µM. Further, at PR [5], the concentration giving a half-maximal response (EC50) was more than 10 µM; the “PR Agonist CV-1 Cells Efficacy (%)” value was “na (na = not active (i.e. efficacy of <20 and potency of >10,000))”. Further, at PR [6], the IC50 was 0.149 µM and the “PR Antagonist CV-1 Cells Efficacy (%)” value amounted to 92%.
The melting point is the temperature of the solid-liquid transition. In turn, `CC(C)(O)C(=O)Nc1ccc2c(C(F)(F)F)cc(=O)[nH]c2c1` showed a melting point of 289 to 291 °C.
`CC1(C)OC(=S)Nc2ccc(C3=CCCCC3)cc21` [Compound 689, 6-(1-Cyclohexenyl)-1,4-dihydro-4,4-dimethyl-1,3-benzo[d]oxazin-2-thione]: the concentration for a half-maximal effect (EC50) was more than 10 µM on human AR [1] and 2.7 µM on PR [5]. For the same compound, the “AR Antagonist CV-1 Cells Efficacy (%)” value at human AR [2] was 89%. The values for the IC50 at human AR [2] and on PR [6] (read-out: PR Antagonist CV-1 Cells Potency) were 0.04 µM and 0.035 µM, respectively. Also, the Ki came out at 0.132 µM on human AR [3] and 0.023 µM on PR [4]. Also, on PR [5], the “PR Agonist CV-1 Cells Efficacy (%)” value came out at 105%. For the same compound, the “PR Antagonist CV-1 Cells Efficacy (%)” value on PR [6] was determined as 47%.
